Data reported in patent publication US6495568B1, “Hydroxamic acid derivatives as matrix metalloprotease (MMP) inhibitors” (Warner-Lambert Company, priority 1997, dated 2002).

melting point [°C]	Structure (SMILES)
168 to 170	Cc1cc(C2=CCN(S(=O)(=O)CC(=O)NO)CC2)ccc1-c1cccc(C(F)(F)F)c1 [Example 45, N-Hydroxy-2-{4[3-methyl-4-(3-trifluoromethylphenyl)phenyl]-1,2,3,6-tetrahydropyridin-1-ylsulphonyl}acetamide]
149 to 152	Cc1cc(C2=CCN(S(=O)(=O)CC(=O)NO)CC2)ccc1-c1ccc2c(c1)CCC2 [Example 59, N-Hydroxy-2-{4-[4-(indan-5-yl)-3-methylphenyl]-1,2,3,6-tetrahydropyridin-1-ylsulphonyl}acetamide]
184 to 186	Cc1cc(C2CCN(S(=O)(=O)C(C)(C)C(=O)NO)CC2)ccc1-c1ccc2c(c1)OC(C)(C)O2 [Example 62, N-Hydroxy-2-{4-[4-(2,2-dimethyl-1,3-benzodioxol-5-yl)-3-methylphenyl]-piperidin-1-ylsulphonyl}-2-methylpropionamide]
160 to 163	Cc1cc(C2=CCN(S(=O)(=O)CC(=O)NO)CC2)ccc1-c1ccccc1F [Example 57, N-Hydroxy-2-{4-[4-(2-fluorophenyl)-3-methylphenyl]-1,2,3,6-tetrahydropyridin-1-ylsulphonyl}acetamide]
154	Cc1cc(C2=CCN(S(=O)(=O)CC(=O)NO)CC2)ccc1-c1cccc(OC(F)(F)F)c1 [Example 60, N-Hydroxy-2-{4-[3-methyl-4-(3-trifluoromethoxyphenyl)phenyl]-1,2,3,6-tetrahydropyridin-1-ylsulphonyl}acetamide]
172 to 174	COc1ccc(-c2ccc(C3=CCN(S(=O)(=O)CC(=O)NO)CC3)cc2C)cc1OC [Example 58, N-Hydroxy-2-{4-[4-(3,4-dimethoxyphenyl)-3-methylphenyl]-1,2,3,6-tetrahydropyridin-1-ylsulphonyl}acetamide]
151 to 153	COCc1cccc(-c2ccc(C3=CCN(S(=O)(=O)CC(=O)NO)CC3)cc2C)c1 [Example 42, N-Hydroxy-2-{4-[4-(3-methoxymethylphenyl)-3-methylphenyl]-1,2,3,6-tetrahydropyridin-1-ylsulphonyl}acetamide]
181 to 183	Cc1cc(C2=CCN(S(=O)(=O)CC(=O)NO)CC2)ccc1-c1ccc(F)c(Cl)c1 [Example 55, N-Hydroxy-2-{4-[4-(3chloro-4-fluorophenyl)-3-methylphenyl]-1,2,3,6-tetrahydropyridin-1-ylsulphonyl}acetamide]
176 to 179	O=C(CS(=O)(=O)N1CCC(c2ccc(Oc3ccccc3)cc2)CC1)NO [Example 46, N-Hydroxy-2-[4-(4-phenoxyphenyl)piperidin-1-ylsulphonyl]acetamide]
174 to 176	Cc1cc(C2=CCN(S(=O)(=O)CC(=O)NO)CC2)ccc1-c1cccc(CO)c1 [Example 39, N-Hydroxy-2-{4-[4-(3-hydroxymethylphenyl)-3-methylphenyl]-1,2,3,6-tetrahydropyridin-1-ylsulphonyl}acetamide]
202 to 205	O=C(NO)C(Cc1ccccc1)S(=O)(=O)N1CC=C(c2ccc(-c3ccccc3)cc2)CC1 (racemic) [Example 53, N-Hydroxy-3-phenyl-2(R,S)-[4-(4-phenylphenyl)-1,2,3,6-tetrahydropyridin-1-ylsulphonyl]propanamide]
155 to 156	COCCOc1cccc(-c2ccc(C3CCN(S(=O)(=O)C(C)(C)C(=O)NO)CC3)cc2C)c1 [Example 47, N-Hydroxy-2-{4-[4-(3-[2-methoxyethoxy]phenyl)-3-methylphenyl]piperidin-1-ylsulphonyl}-2-methylpropanamide]
213 to 215	Cc1cc(C2CCN(S(=O)(=O)C(C)(C)C(=O)NO)CC2)ccc1-c1ccc2c(c1)nc(C)n2C [Example 63, N-Hydroxy-2-{4-[4-(1,2-dimethylbenzimidazol-5-yl)-3-methylphenyl]piperidin-1-ylsulphonyl]-2-methylpropionamide]
158 to 160	COCCOc1cccc(-c2ccc(C3=CCN(S(=O)(=O)CC(=O)NO)CC3)cc2C)c1 [Example 43, N-Hydroxy-2-{4-[4-(3-[2-methoxyethoxy]phenyl)-3-methylphenyl]-1,2,3,6-tetrahydropyridin-1-ylsulphonyl}acetamide]
135 to 136	COCCC(C(=O)NO)S(=O)(=O)N1CC=C(c2ccc(-c3ccccc3)c(C)c2)CC1 (racemic) [Example 48, N-Hydroxy-4-methoxy-2(R,S)-[4-(3-methyl-4-phenylphenyl)-1,2,3,6-tetrahydropyridin-1-ylsulphonyl]butanamide]

More lines, now with the values behind:

Structure (SMILES)	melting point [°C]
CCOc1cccc(-c2ccc(C3CCN(S(=O)(=O)CC(=O)NO)CC3)cc2C)c1 [Example 31, N-Hydroxy-2-{4-[4-(3-ethoxyphenyl)-3-methylphenyl]piperidin-1-ylsulphonyl}acetamide]	179 to 180
O=C(CS(=O)(=O)N1CCC(Cc2ccccc2)CC1)NO [Example 6, N-Hydroxy-2-(4-benzylpiperidin-1-ylsulphonyl)acetamide]	132 to 135
C=C(C)CC(C(=O)NO)S(=O)(=O)N1CC=C(c2ccc(-c3ccccc3)cc2)CC1 (racemic) [Example 14, N-Hydroxy-4-methyl-2(R,S)-[4-(4-phenylphenyl)-1,2,3,6-tetrahydropyridin-1-ylsulphonyl]pent-4-enamide]	170 to 171
COc1cc(C2=CCN(S(=O)(=O)C(C)(C)C(=O)NO)CC2)ccc1-c1ccccc1 [Example 19, N-Hydroxy-2-[4-(3-methoxy-4-phenylphenyl)-1,2,3,6-tetrahydropyridin-1-ylsulphonyl]-2-methylpropanamide]	156 to 158
COc1cccc(-c2ccc(C3CCN(S(=O)(=O)C(C)(C)C(=O)NO)CC3)cc2OC)c1 [Example 26, N-Hydroxy-2-{4-[3-methoxy-4-(3-methoxyphenyl)phenyl]piperidin-1-ylsulphonyl}-2-methylpropanamide]	161 to 163
CCc1cccc(-c2ccc(C3=CCN(S(=O)(=O)CC(=O)NO)CC3)cc2C)c1 [Example 23, N-Hydroxy-2-{4-[4-(3-ethylphenyl)-3-methylphenyl]-1,2,3,6-tetrahydropyridin-1-ylsulphonyl}acetamide]	151 to 154
CCOc1cccc(-c2ccc(C3=CCN(S(=O)(=O)C(C)(C)C(=O)NO)CC3)cc2C)c1 [Example 30, N-Hydroxy-2-{4-[4-(3-ethoxyphenyl)-3-methylphenyl]-1,2,3,6-tetrahydropyridin-1-ylsulphonyl}2-methylpropanamide]	116 to 118
O=C(CS(=O)(=O)N1CC=C(c2ccccc2)CC1)NO [Example 4, N-Hydroxy-2-(4-phenyl-1,2,3,6-tetrahydropyridin-1-ylsulphonyl)acetamide]	175 to 176
CCOc1cccc(-c2ccc(C3CCN(S(=O)(=O)C(C)(C)C(=O)NO)CC3)cc2OC)c1 [Example 27, N-Hydroxy-2-{4-[4(3-ethoxyphenyl)-3-methoxyphenyl]piperidin-1-ylsulphonyl}-2-methylpropanamide]	134 to 136
O=C(CS(=O)(=O)N1CCC(c2ccccc2)CC1)NO [Example 5, N-Hydroxy-2-(4-phenylpiperidin-1-ylsulphonyl)acetamide]	185 to 187
CCOc1cccc(-c2ccc(C3=CCN(S(=O)(=O)CC(=O)NO)CC3)cc2)c1 [Example 21, N-Hydroxy-2-{4-[4-(3-ethoxyphenyl)phenyl]-1,2,3,6-tetrahydropyridin-1-ylsulphonyl}acetamide]	168 to 170
COc1cc(C2=CCN(S(=O)(=O)CC(=O)NO)CC2)ccc1-c1ccccc1 [Example 18, N-Hydroxy-2-[4-(3-methoxy-4-phenylphenyl)-1,2,3,6-tetrahydropyridin-1-ylsulphonyl]acetamide]	175 to 177
CCCCC(C(=O)NO)S(=O)(=O)N1CC=C(c2ccc(-c3ccccc3)cc2)CC1 (racemic) [Example 13, N-Hydroxy-2(R,S)-[4-(4-phenylphenyl)-1,2,3,6-tetrahydropyridin-1-ylsulphonyl]hexanamide]	186 to 189
O=C(CS(=O)(=O)N1CC=C(c2ccc(-c3ccccc3)c(F)c2)CC1)NO [Example 20, N-Hydroxy-2-[4-(3-fluoro-4-phenylphenyl)-1,2,3,6-tetrahydropyridin-1-ylsulphonyl]acetamide]	184 to 188
O=C(CS(=O)(=O)N1CC=C(c2ccc(-c3ccccc3)cc2)CC1)NO [Example 1, N-Hydroxy-2-[4-(4-phenylphenyl)-1,2,3,6-tetrahydropyridin-1-ylsulphonyl]acetamide]	216 to 218
CCOc1cccc(-c2ccc(C3CCN(S(=O)(=O)C(C)(C)C(=O)NO)CC3)cc2C)c1 [Example 32, N-Hydroxy-2-{4-[4-(3-ethoxyphenyl)-3-methylphenyl]piperidin-1-ylsulphonyl}-2-methylpropanamide]	172 to 174
COc1cccc(-c2ccc(C3=CCN(S(=O)(=O)CC(=O)NO)CC3)cc2C)c1 [Example 22, N-Hydroxy-2-{4-[4-(3-methoxyphenyl)-3-methylphenyl]-1,2,3,6-tetrahydropyridin-1-ylsulphonyl}acetamide]	162 to 165
Cc1cc(C2=CCN(S(=O)(=O)CC(=O)NO)CC2)ccc1-c1cccnc1 [Example 34, N-Hydroxy-2-{4-[3-methyl-4-(pyridin-3-yl)phenyl]-1,2,3,6-tetrahydropyridin-1-ylsulphonyl}acetamide]	132 to 136
